Data published in PubChem BioAssay (NCI).
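Five concentrations, 48 hours, 96-well plates. TGI marks complete inhibition of growth.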

What was measured:
Assay in all cases: NCI anticancer screen, dose series, 48 h
SK-MEL-2 melanoma = system: SK-MEL-2 melanoma
EKVX NSCLC = system: EKVX NSCLC
NCI-H226 lung = system: NCI-H226 lung
IGROV1 ovarian = system: IGROV1 ovarian
OVCAR-3 ovarian = system: OVCAR-3 ovarian
RPMI-8226 leukemia = system: RPMI-8226 leukemia
MDA-N = system: MDA-N
A549 NSCLC = system: A549 NSCLC
CAKI-1 renal = system: CAKI-1 renal
SF-295 CNS = system: SF-295 CNS
786-0 renal = system: 786-0 renal
M14 melanoma = system: M14 melanoma
OVCAR-5 ovarian = system: OVCAR-5 ovarian
TK-10 renal = system: TK-10 renal
OVCAR-8 ovarian = system: OVCAR-8 ovarian
T-47D breast = system: T-47D breast
A498 renal = system: A498 renal
K-562 leukemia = system: K-562 leukemia
DU-145 prostate = system: DU-145 prostate
ACHN renal = system: ACHN renal
HCT-116 colon = system: HCT-116 colon
MDA-MB-435 = system: MDA-MB-435
COLO 205 colon = system: COLO 205 colon
CCRF-CEM leukemia = system: CCRF-CEM leukemia
SK-MEL-5 melanoma = system: SK-MEL-5 melanoma
SF-268 CNS = system: SF-268 CNS
SNB-19 CNS = system: SNB-19 CNS
U251 CNS = system: U251 CNS
SNB-75 CNS = system: SNB-75 CNS
SK-MEL-28 melanoma = system: SK-MEL-28 melanoma
LOX IMVI melanoma = system: LOX IMVI melanoma
MCF7 breast = system: MCF7 breast
MALME-3M melanoma = system: MALME-3M melanoma
OVCAR-4 ovarian = system: OVCAR-4 ovarian
NCI/ADR-RES ovarian = system: NCI/ADR-RES ovarian
MOLT-4 leukemia = system: MOLT-4 leukemia
NCI-H522 lung = system: NCI-H522 lung
HOP-62 NSCLC = system: HOP-62 NSCLC
PC-3 prostate = system: PC-3 prostate
UO-31 renal = system: UO-31 renal
HS 578T breast = system: HS 578T breast
KM12 colon = system: KM12 colon
SK-OV-3 ovarian = system: SK-OV-3 ovarian
BT-549 breast = system: BT-549 breast
SW-620 colon = system: SW-620 colon
HCT-15 colon = system: HCT-15 colon
SF-539 CNS = system: SF-539 CNS
UACC-257 melanoma = system: UACC-257 melanoma
NCI-H460 lung = system: NCI-H460 lung
HT29 colon = system: HT29 colon
HOP-92 NSCLC = system: HOP-92 NSCLC
NCI-H23 lung = system: NCI-H23 lung
MDA-MB-231 breast = system: MDA-MB-231 breast
SN12C renal = system: SN12C renal
HCC-2998 colon = system: HCC-2998 colon
SR leukemia = system: SR leukemia
HL-60(TB) leukemia = system: HL-60(TB) leukemia
UACC-62 melanoma = system: UACC-62 melanoma
RXF 393 renal = system: RXF 393 renal

In the case of `O=C1C(c2ccccc2)=C(c2ccccc2)C1(Cl)Cl`, the TGI (SK-MEL-2 melanoma) is reported as 8.7 µM, the TGI (EKVX NSCLC) is reported as 21.7 µM and the TGI (NCI-H226 lung) is reported as 10.1 µM. The TGI (IGROV1 ovarian) was 15.3 µM, the TGI (OVCAR-3 ovarian) was 7.34 µM and the TGI (RPMI-8226 leukemia) was 5.53 µM. For the same molecule, the TGI (MDA-N) was 4.51 µM, the TGI (A549 NSCLC) was 27.4 µM and the TGI (CAKI-1 renal) was 6.15 µM. It also gave a TGI (SF-295 CNS) of 28.7 µM, a TGI (786-0 renal) of 7.36 µM and a TGI (M14 melanoma) of 5.9 µM. It also gave a TGI (OVCAR-5 ovarian) of 20.8 µM, a TGI (TK-10 renal) of 2.81 µM and a TGI (OVCAR-8 ovarian) of 8.98 µM. For the same molecule, the TGI (T-47D breast) was 10.6 µM, the TGI (A498 renal) was 17.2 µM and the TGI (K-562 leukemia) was 4.13 µM. For the same molecule, the TGI (DU-145 prostate) was 24.5 µM, the TGI (ACHN renal) was 7.09 µM and the TGI (HCT-116 colon) was 2.85 µM. For the same molecule, the TGI (MDA-MB-435) was 6.7 µM, the TGI (COLO 205 colon) was 6.4 µM and the TGI (CCRF-CEM leukemia) was 3.96 µM. It also gave a TGI (SK-MEL-5 melanoma) of 8.03 µM, a TGI (SF-268 CNS) of 12.7 µM and a TGI (SNB-19 CNS) of 32.9 µM. The TGI (U251 CNS) was 7.68 µM, the TGI (SNB-75 CNS) was 16.6 µM and the TGI (SK-MEL-28 melanoma) was 10.9 µM. The TGI (LOX IMVI melanoma) was 4.25 µM, the TGI (MCF7 breast) was 9.92 µM and the TGI (MALME-3M melanoma) was 7.56 µM. The TGI (OVCAR-4 ovarian) was 11.4 µM, the TGI (NCI/ADR-RES ovarian) was greater than 27 µM and the TGI (MOLT-4 leukemia) was 6.97 µM. It also gave a TGI (NCI-H522 lung) of 4.51 µM, a TGI (HOP-62 NSCLC) of 41.9 µM and a TGI (PC-3 prostate) of 14.3 µM. The TGI (UO-31 renal) was 13.5 µM, the TGI (HS 578T breast) was greater than 28.8 µM and the TGI (KM12 colon) was 19.2 µM. The TGI (SK-OV-3 ovarian) was 29.2 µM, the TGI (BT-549 breast) was 6.99 µM and the TGI (SW-620 colon) was 9.77 µM. The TGI (HCT-15 colon) was 4.51 µM, the TGI (SF-539 CNS) was 9.22 µM and the TGI (UACC-257 melanoma) was 9.36 µM. The TGI (NCI-H460 lung) was 20.8 µM, the TGI (HT29 colon) was 13.6 µM and the TGI (HOP-92 NSCLC) was 7.14 µM. It also gave a TGI (NCI-H23 lung) of 7.72 µM, a TGI (MDA-MB-231 breast) of 7.84 µM and a TGI (SN12C renal) of 11.5 µM. The TGI (HCC-2998 colon) was 13.3 µM, the TGI (SR leukemia) was 4.82 µM and the TGI (HL-60(TB) leukemia) was 2.17 µM. It also gave a TGI (UACC-62 melanoma) of 4.13 µM.

`N=c1ncn(C/C=C/c2ccccc2)c2nc[nH]c12` showed a TGI (SK-MEL-2 melanoma) greater than 100 µM, a TGI (EKVX NSCLC) greater than 100 µM and a TGI (IGROV1 ovarian) greater than 100 µM. It also gave a TGI (OVCAR-3 ovarian) greater than 100 µM, a TGI (RPMI-8226 leukemia) greater than 100 µM and a TGI (MDA-N) greater than 100 µM. For the same molecule, the TGI (A549 NSCLC) was greater than 100 µM, the TGI (CAKI-1 renal) was greater than 100 µM and the TGI (SF-295 CNS) was greater than 100 µM. For the same molecule, the TGI (786-0 renal) was greater than 100 µM, the TGI (M14 melanoma) was greater than 100 µM and the TGI (OVCAR-5 ovarian) was greater than 100 µM. It also gave a TGI (TK-10 renal) greater than 100 µM, a TGI (OVCAR-8 ovarian) greater than 100 µM and a TGI (T-47D breast) greater than 100 µM. The TGI (A498 renal) was greater than 100 µM, the TGI (K-562 leukemia) was greater than 100 µM and the TGI (DU-145 prostate) was greater than 100 µM. The TGI (ACHN renal) was greater than 100 µM, the TGI (HCT-116 colon) was greater than 100 µM and the TGI (MDA-MB-435) was greater than 100 µM. It also gave a TGI (COLO 205 colon) greater than 100 µM, a TGI (SK-MEL-5 melanoma) greater than 100 µM and a TGI (SF-268 CNS) greater than 100 µM. The TGI (SNB-19 CNS) was greater than 100 µM, the TGI (U251 CNS) was greater than 100 µM and the TGI (SNB-75 CNS) was greater than 100 µM. For the same molecule, the TGI (SK-MEL-28 melanoma) was greater than 100 µM, the TGI (LOX IMVI melanoma) was greater than 100 µM and the TGI (MCF7 breast) was greater than 100 µM. For the same molecule, the TGI (MALME-3M melanoma) was greater than 100 µM, the TGI (OVCAR-4 ovarian) was greater than 100 µM and the TGI (NCI/ADR-RES ovarian) was greater than 100 µM. It also gave a TGI (MOLT-4 leukemia) of 36.5 µM, a TGI (NCI-H522 lung) greater than 100 µM and a TGI (HOP-62 NSCLC) greater than 100 µM. For the same molecule, the TGI (PC-3 prostate) was greater than 100 µM, the TGI (UO-31 renal) was greater than 100 µM and the TGI (HS 578T breast) was greater than 100 µM. It also gave a TGI (KM12 colon) greater than 100 µM, a TGI (SK-OV-3 ovarian) greater than 100 µM and a TGI (BT-549 breast) greater than 100 µM. The TGI (SW-620 colon) was greater than 100 µM, the TGI (HCT-15 colon) was greater than 100 µM and the TGI (SF-539 CNS) was greater than 100 µM. For the same molecule, the TGI (UACC-257 melanoma) was greater than 100 µM, the TGI (RXF 393 renal) was greater than 100 µM and the TGI (NCI-H460 lung) was greater than 100 µM. The TGI (HT29 colon) was greater than 100 µM, the TGI (HOP-92 NSCLC) was greater than 100 µM and the TGI (NCI-H23 lung) was greater than 100 µM. For the same molecule, the TGI (MDA-MB-231 breast) was greater than 100 µM, the TGI (SN12C renal) was greater than 100 µM and the TGI (HCC-2998 colon) was greater than 100 µM. It also gave a TGI (SR leukemia) greater than 100 µM and a TGI (UACC-62 melanoma) greater than 100 µM.
